We go through three molecules from article PMC7933325, “Neolignans and Norlignans from Insect Medicine Polyphaga plancyi and Their Biological Activities” (Natural Products and Bioprospecting, 2020).

In general, IC50 refers to the concentration that inhibits the measured activity by half. A high value points to weaker potency.

Experiment in all cases: kinase inhibition assay (method cited to earlier paper)
Common to all, as to format: biochemical

One assay deals with ROCK2 (Homo sapiens, UniProt O75116).
Chain of ROCK2 (O75116 whole entry): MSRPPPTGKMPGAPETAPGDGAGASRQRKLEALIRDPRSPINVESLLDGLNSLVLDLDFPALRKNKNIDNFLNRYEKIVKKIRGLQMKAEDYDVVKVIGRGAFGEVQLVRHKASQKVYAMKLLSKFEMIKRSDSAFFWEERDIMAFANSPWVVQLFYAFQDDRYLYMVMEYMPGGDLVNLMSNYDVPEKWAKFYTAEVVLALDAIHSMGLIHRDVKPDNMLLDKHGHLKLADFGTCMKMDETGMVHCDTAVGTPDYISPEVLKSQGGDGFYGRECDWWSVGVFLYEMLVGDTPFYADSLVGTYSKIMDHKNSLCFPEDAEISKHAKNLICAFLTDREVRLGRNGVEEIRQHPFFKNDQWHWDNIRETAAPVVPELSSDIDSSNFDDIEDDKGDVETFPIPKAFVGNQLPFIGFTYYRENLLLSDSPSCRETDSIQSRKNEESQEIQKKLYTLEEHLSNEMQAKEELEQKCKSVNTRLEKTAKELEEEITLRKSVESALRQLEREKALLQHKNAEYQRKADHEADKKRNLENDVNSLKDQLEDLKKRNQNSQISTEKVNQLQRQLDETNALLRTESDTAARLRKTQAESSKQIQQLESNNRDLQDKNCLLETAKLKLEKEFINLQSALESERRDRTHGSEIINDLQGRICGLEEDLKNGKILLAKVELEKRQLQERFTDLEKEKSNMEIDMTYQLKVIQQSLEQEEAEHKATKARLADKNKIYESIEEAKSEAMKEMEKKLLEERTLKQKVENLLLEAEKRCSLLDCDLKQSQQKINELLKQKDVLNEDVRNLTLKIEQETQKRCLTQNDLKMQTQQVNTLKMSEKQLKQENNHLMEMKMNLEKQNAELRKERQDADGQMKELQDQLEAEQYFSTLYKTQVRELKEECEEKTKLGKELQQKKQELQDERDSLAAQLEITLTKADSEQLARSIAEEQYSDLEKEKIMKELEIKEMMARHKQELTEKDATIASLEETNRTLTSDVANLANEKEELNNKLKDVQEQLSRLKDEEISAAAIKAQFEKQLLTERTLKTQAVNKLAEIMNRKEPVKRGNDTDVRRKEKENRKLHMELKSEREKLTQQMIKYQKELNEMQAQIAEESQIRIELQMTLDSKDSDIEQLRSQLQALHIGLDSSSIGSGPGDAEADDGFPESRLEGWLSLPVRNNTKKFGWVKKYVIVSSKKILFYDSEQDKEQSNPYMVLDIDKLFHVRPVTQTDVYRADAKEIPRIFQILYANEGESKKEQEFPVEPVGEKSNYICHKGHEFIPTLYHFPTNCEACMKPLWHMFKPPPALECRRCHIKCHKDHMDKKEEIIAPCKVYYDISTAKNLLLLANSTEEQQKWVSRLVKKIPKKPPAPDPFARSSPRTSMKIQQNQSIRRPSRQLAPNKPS
The next assay concerns the target T1, JAK3 (Homo sapiens, UniProt P52333).
T1 sequence (P52333 1-1124): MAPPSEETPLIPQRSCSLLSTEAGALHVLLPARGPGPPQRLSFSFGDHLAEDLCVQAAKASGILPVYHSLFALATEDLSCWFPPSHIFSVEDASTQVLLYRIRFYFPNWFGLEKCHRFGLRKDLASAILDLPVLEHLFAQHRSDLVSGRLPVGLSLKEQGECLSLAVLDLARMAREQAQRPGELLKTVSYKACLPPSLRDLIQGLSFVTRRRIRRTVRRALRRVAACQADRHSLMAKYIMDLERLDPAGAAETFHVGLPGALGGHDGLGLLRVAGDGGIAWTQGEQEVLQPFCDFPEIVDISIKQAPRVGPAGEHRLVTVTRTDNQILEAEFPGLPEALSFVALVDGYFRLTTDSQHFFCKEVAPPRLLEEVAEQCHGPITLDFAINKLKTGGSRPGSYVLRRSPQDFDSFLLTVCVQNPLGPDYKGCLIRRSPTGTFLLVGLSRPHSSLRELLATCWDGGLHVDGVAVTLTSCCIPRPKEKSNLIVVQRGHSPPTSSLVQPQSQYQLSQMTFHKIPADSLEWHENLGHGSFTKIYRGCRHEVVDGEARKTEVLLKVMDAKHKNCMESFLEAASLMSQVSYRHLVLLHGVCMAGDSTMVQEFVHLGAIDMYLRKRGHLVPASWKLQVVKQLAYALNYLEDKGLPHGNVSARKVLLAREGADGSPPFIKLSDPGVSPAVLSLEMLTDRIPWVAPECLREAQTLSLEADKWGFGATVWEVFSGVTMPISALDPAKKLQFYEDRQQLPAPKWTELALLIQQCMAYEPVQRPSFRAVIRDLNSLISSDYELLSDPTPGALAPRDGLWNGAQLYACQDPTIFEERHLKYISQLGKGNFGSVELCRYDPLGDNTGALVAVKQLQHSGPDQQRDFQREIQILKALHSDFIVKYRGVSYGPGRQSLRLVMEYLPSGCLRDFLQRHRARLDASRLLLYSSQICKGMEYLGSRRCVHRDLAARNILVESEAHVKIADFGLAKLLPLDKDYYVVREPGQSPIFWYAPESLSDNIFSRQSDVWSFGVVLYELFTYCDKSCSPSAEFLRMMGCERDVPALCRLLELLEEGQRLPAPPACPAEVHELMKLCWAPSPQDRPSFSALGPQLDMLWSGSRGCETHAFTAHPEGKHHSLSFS

A further assay concerns the target DDR1 (Homo sapiens, UniProt Q08345).

Chain of DDR1 (Q08345 19-913): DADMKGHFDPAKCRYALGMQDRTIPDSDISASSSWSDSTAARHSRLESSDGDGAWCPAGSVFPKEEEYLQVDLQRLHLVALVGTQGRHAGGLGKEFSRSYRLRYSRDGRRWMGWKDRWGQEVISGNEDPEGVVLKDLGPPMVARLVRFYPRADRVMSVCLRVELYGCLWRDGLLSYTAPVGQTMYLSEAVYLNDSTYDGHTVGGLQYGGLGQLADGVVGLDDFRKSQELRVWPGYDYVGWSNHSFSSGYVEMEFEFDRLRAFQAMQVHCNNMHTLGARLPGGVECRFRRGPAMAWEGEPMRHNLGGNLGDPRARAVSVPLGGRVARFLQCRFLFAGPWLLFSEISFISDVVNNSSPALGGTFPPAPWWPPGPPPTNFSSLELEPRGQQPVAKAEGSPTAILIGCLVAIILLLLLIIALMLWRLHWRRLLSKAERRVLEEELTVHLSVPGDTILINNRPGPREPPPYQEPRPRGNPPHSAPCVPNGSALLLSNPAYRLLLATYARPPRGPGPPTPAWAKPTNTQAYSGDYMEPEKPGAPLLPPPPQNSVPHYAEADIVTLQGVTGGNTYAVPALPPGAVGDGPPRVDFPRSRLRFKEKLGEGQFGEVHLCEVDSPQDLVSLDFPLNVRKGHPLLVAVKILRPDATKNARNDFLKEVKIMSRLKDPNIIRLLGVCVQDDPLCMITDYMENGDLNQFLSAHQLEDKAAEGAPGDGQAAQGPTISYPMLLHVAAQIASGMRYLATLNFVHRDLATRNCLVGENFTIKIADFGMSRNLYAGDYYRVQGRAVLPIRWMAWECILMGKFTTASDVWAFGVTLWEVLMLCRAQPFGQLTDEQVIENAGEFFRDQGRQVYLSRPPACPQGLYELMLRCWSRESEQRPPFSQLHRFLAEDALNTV

As to `Cc1ccc(O)c(-c2cc(CC(=O)O)ccc2O)c1` [compound 6, Plancyin F], the IC50 against ROCK2 is 27.1 µM; against JAK3, 9.17 µM.

Consider `OC[C@H]1OC[C@H](c2ccc(O)c(O)c2)c2cc(O)c(O)cc21` (stereo in doubt) [(+)-9, (+)-Periplanol A], for which the IC50 on DDR1 is 23.9 µM; against JAK3, 9.35 µM.

Regarding `OC[C@@H]1OC[C@@H](c2ccc(O)c(O)c2)c2cc(O)c(O)cc21` (stereo in doubt) [(−)-9, (−)-Periplanol A], the IC50 on DDR1 was 22.9 µM; on JAK3, 4.59 µM.
